Common to all, as to assay type: cell-based
For one test, the target named is T1, CaV2.2 (Homo sapiens, UniProt Q00975).
T1 construct: expressed in transfected cells; host or cells: HEK293
Description: VIPR optical membrane potential assay with electrical stimulation, CaV2.2. The settings on record: Table 9, CaV 2.2 receptors. A digest of the protocol:
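HEK293 cells stably expressing CaV2.2 stained with CC2-DMPE/DiSBAC2(3) voltage-sensitive dyes (10 μM final CC2-DMPE, 30 min, RT), then compound added and cells electrically stimulated for 3-5 s. Read-out: background-subtracted 460/580 nm emission ratio; response R=Rf/Ri (post- vs pre-stimulus ratio); antagonism seen as reduced response.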

For a further test, the target named is T2, NaV1.3 (Homo sapiens, UniProt Q9NY46).
T2 construct: expressed in transfected cells; host or cells: HEK293
In words: VIPR optical membrane potential assay with electrical stimulation, NaV1.3. As to conditions: Table 9, NaV 1.3 receptors. A digest of the protocol: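 HEK293 cells stably expressing NaV1.3, stained with CC2-DMPE (10 μM final) then DiSBAC2(3) with ABSC1, 30 min each at RT; compounds added with oxonol. Electrical stimulation for 3 s; 460/580 nm background-subtracted emission ratio Rf/Ri, normalised to tetracaine (positive) and untreated (negative) controls.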

In another test the target is NaV1.8 (Homo sapiens, UniProt Q9Y5Y9). In words: VIPR optical membrane potential assay, NaV1.8 (other subtypes in an analogous mode). The settings on record: Table 9, NaV 1.8 receptors. On the procedure: Antagonist properties of test compounds were assessed as follows. Cells expressing the NaV of interest were placed into microtiter plates. After an incubation period, the cells were stained with fluorescent dyes sensitive to the transmembrane potential. The test compounds were added to the microtiter plate. The cells were stimulated with either chemical or electrical means to evoke a NaV dependent membrane potential change from unblocked channels, which was detected and measured with trans-membrane potential-sensitive dyes. Antagonists were detected as a decreased membrane potential response to the stimulus.
24 hours before the assay on VIPR, CHO cells endogenously expressing a NaV 1.2 type voltage-gated NaV are seeded in 96-well poly-lysine coated plates at 60,000 cells per well. […] Plates are incubated in the dark for 30 minutes at room temperature. • 4) While the cells are being stained with coumarin, a […] oxonol solution in BS#2 is prepared. […] As before, the residual volume should be 40 μL. • 6) Upon removing the bath, the cells are loaded with 80 μL of the DiSBAC2(3) solution, after which test compound, dissolved in DMSO, is added to achieve the desired test concentration to each well from the drug addition plate and mixed thoroughly. The volume in the well should be roughly 121 μL. The cells are then incubated for 20-30 minutes. • 7) Once the incubation is complete, the cells are ready to be assayed on VIPR® with a sodium addback protocol. 120 μL of Bath solution #1 is added to stimulate the NaV dependent depolarization. […] tetracaine was used as an antagonist positive control for block of the NaV channel. Analysis of VIPR® Data:
The following is an example of how NaV1.3 inhibition activity is measured using the optical membrane potential method#2. Other subtypes are performed in an analogous mode in a cell line expressing the NaV of interest.

This note sets out measurements from US8546414B2, “Ion channel modulators and methods of use” (Vertex Pharmaceuticals Incorporated, priority 2004, dated 2013).

Broadly, the IC50 is the point on the concentration scale where inhibition reaches its midpoint.

A value given as a limit tells only on which side of the number the result lay.

T1 sequence (Q00975 whole entry): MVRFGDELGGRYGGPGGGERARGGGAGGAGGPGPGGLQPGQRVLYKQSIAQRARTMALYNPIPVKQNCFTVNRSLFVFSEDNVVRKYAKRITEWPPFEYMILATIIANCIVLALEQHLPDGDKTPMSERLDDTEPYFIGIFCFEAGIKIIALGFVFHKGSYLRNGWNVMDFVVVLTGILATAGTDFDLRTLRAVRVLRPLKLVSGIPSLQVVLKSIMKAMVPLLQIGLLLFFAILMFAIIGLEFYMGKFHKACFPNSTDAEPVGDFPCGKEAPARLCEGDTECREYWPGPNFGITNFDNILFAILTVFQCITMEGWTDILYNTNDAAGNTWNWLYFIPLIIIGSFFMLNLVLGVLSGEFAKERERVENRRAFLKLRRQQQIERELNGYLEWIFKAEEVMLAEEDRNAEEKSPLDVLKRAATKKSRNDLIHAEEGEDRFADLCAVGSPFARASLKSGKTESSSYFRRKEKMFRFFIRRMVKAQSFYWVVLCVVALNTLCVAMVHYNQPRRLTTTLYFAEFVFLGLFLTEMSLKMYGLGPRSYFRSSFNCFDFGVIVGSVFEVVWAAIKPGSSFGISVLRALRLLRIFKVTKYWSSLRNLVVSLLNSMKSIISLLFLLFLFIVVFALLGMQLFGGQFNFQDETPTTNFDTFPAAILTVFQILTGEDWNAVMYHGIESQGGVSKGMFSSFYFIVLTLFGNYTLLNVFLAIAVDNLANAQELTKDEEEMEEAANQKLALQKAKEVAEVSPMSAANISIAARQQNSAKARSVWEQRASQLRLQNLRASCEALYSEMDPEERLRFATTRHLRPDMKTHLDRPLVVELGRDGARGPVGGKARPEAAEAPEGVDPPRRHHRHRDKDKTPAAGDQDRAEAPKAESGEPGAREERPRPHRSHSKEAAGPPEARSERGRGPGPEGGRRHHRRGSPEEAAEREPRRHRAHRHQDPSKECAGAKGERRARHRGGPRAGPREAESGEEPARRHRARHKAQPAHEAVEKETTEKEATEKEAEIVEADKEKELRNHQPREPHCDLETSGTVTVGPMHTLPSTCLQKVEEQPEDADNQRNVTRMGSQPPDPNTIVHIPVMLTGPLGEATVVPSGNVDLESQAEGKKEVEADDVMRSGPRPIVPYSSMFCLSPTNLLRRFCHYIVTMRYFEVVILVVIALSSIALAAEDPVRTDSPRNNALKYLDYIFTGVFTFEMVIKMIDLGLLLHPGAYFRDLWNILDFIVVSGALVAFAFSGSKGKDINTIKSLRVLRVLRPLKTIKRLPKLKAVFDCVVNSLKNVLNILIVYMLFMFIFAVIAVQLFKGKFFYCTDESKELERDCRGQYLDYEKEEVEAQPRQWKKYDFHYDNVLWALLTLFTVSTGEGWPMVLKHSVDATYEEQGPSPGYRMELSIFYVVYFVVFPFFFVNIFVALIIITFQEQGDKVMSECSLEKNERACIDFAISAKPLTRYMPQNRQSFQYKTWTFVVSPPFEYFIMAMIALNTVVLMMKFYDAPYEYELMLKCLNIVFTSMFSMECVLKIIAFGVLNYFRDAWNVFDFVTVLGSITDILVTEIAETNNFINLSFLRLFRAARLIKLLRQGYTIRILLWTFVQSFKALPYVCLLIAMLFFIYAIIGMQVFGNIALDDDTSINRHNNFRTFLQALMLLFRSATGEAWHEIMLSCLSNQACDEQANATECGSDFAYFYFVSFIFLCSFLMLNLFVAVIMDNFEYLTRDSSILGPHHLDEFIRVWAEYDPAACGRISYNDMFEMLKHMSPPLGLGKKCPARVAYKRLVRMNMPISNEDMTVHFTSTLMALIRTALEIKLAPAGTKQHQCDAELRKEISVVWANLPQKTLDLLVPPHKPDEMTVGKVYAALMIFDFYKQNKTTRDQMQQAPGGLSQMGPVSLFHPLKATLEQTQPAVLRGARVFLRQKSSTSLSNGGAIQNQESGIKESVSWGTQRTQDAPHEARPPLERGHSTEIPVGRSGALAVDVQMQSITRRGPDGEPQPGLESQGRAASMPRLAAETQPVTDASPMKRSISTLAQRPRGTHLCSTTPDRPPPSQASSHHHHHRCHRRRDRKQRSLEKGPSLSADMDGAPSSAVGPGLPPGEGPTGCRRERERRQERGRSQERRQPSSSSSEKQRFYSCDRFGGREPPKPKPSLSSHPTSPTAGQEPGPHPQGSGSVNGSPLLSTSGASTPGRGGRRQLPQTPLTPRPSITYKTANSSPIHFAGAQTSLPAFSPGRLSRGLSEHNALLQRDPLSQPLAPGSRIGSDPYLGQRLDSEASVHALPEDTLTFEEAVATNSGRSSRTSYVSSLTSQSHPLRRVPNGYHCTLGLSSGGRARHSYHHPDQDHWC
T1 sequence (P54284 whole entry partner): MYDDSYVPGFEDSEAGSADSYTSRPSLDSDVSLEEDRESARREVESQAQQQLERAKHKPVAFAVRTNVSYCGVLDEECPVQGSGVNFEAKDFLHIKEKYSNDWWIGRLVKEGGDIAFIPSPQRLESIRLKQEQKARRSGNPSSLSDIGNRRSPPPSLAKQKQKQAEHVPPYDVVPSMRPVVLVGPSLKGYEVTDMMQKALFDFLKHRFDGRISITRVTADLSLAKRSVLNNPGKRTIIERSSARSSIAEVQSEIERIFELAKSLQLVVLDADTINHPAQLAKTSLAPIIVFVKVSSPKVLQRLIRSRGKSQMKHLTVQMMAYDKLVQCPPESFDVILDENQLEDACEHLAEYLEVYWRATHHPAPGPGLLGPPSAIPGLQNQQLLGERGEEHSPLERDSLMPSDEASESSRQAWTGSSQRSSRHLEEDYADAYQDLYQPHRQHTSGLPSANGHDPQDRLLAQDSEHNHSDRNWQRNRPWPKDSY
T1 sequence (P54289 25-956 partner limits assumed): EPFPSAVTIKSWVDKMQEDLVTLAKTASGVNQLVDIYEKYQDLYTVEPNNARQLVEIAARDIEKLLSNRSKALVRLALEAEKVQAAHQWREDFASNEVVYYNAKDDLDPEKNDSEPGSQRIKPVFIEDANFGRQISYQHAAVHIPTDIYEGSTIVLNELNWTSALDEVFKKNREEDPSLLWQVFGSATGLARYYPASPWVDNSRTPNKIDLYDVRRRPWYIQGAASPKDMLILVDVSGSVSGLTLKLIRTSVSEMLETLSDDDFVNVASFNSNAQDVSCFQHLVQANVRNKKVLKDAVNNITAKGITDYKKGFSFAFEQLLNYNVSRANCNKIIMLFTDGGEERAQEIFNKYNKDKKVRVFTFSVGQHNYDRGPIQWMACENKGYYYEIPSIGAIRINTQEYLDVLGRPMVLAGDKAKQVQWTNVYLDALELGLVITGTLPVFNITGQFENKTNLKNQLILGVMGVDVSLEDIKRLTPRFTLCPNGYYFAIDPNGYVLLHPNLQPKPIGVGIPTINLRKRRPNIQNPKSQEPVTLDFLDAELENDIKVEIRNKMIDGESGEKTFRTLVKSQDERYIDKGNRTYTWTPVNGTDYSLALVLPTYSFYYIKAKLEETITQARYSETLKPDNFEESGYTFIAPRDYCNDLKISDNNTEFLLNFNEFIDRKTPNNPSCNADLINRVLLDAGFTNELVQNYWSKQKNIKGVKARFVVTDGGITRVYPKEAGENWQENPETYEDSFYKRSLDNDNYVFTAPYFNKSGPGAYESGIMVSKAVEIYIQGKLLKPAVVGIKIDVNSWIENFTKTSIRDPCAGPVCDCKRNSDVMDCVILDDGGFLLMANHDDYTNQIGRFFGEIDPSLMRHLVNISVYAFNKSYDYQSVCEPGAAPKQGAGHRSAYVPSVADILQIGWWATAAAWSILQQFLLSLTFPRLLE
T1 sequence (P54289 957-1103 partner limits assumed): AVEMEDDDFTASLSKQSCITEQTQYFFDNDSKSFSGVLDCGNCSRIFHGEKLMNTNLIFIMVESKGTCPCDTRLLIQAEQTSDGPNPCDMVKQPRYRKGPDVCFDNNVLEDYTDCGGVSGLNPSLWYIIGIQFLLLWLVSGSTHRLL

`Cc1cccc(CN(C(=O)c2c(C)nc(N3CCOCC3)nc2-c2ccccc2F)C2CC2)c1` [compound 10]: the IC50 against CaV2.2 is 2 to 10 µM; at NaV1.3, 2 to 10 µM; against NaV1.8 it was over 10 µM.
Take `CCNc1ncc(C(=O)N(Cc2ccccc2)C(C)C)c(-c2ccccc2F)n1` [compound 11]: the IC50 on CaV2.2, against NaV1.3 and against NaV1.8 was over 10 µM throughout.
In the case of `COc1ccc(N(C(=O)c2cnc(N3CCC4CCCCC4C3)nc2-c2ccccc2F)C(C)C)cc1` (stereo not drawn) [compound 12], the half-inhibitory concentration (IC50) is under 2 µM against CaV2.2, over 10 µM at NaV1.3 and over 10 µM at NaV1.8.
`Cc1nc(N2CCOCC2)nc(-c2ccccc2F)c1C(=O)N(Cc1ccccc1)C(C)C` [compound 13]: the figures for the half-inhibitory concentration (IC50) against CaV2.2, against NaV1.3 and against NaV1.8 were 2 to 10 µM, over 10 µM and over 10 µM, respectively.
Turning to `O=C(c1cnc(N2CCCCC2)nc1-c1ccccc1F)N(Cc1cccc(-c2ccncc2)c1)C1CC1` [compound 14], the half-inhibitory concentration (IC50) is 2 to 10 µM against CaV2.2, over 10 µM against NaV1.3 and over 10 µM on NaV1.8.
Take `COc1cccc(Nc2ncc(C(=O)N(Cc3ccccc3)C(C)C)c(-c3ccccc3F)n2)c1` [compound 15]: the half-maximal inhibitory concentration (IC50) against CaV2.2, against NaV1.3 and against NaV1.8 was over 10 µM each time.
With `CC(C)N(Cc1ccccc1)C(=O)c1cnc(N2CCOCC2)nc1-c1ccc(F)c(F)c1` [compound 16], the 50% inhibitory concentration (IC50) against CaV2.2, against NaV1.3 and against NaV1.8 was over 10 µM throughout.
With `CC(C)N(Cc1ccccc1)C(=O)c1cnc(N2CCOCC2)nc1-c1cccc(/C=C/C(=O)O)c1` [compound 17], the IC50 on CaV2.2, against NaV1.3 and on NaV1.8 was over 10 µM each time.
As for `CN1CCN(c2ncc(C(=O)N(Cc3ccncc3)C3CC3)c(-c3ccccc3F)n2)CC1` [compound 18], the 50% inhibitory concentration (IC50) on CaV2.2, against NaV1.3 and against NaV1.8 was over 10 µM in each case.
`O=C(NC1CCCC1)c1cnc(N2CCOCC2)nc1-c1ccccc1F` [compound 19]: the IC50 on CaV2.2, at NaV1.3 and at NaV1.8 was over 10 µM in each case.
Take `COc1cccc(CN(C(=O)c2cnc(N3CCCCC3)nc2-c2ccccc2F)C(C)C)c1` [compound 20, 4-(2-fluorophenyl)-N-isopropyl-N-(3-methoxybenzyl)-2-(piperidin-1-yl)pyrimidine-5-carboxamide]: the results for the IC50 against CaV2.2, against NaV1.3 and on NaV1.8 were under 2 µM, 2 to 10 µM and 2 to 10 µM, respectively.
For `COc1cccc(N(C(=O)c2c(C)nc(N3CCOCC3)nc2-c2ccccc2F)C(C)C)c1` [compound 21], the half-inhibitory concentration (IC50) against CaV2.2, on NaV1.3 and at NaV1.8 was over 10 µM in each case.
For `COc1cccc(CN(C(=O)c2cnc(N3CCc4ccccc4C3)nc2-c2ccccc2F)C(C)C)c1` [compound 22], the values for the IC50 at CaV2.2, against NaV1.3 and against NaV1.8 were under 2 µM, 2 to 10 µM and over 10 µM, respectively.
For `CC(C)N(C(=O)c1cnc(N2CCN(C)CC2)nc1-c1ccccc1F)c1ccccc1` [compound 23] the same measures were over 10 µM, over 10 µM and over 10 µM.
For `CC(C)N(Cc1ccc(C(C)(C)C)cc1)C(=O)c1cnc(N2CCOCC2)nc1-c1ccccc1F` [compound 24] the same measures were under 2 µM, 2 to 10 µM and 2 to 10 µM.
For `Cc1nc(N2CCOCC2)nc(-c2ccccc2F)c1C(=O)N(c1ccccc1)C(C)C` [compound 25], the IC50 at CaV2.2, against NaV1.3 and on NaV1.8 was over 10 µM in each case.
Regarding `O=C(c1cnc(N2CCOCC2)nc1-c1ccccc1F)N(Cc1ccccc1)C1CCC1` [compound 26], the IC50 against CaV2.2 is 2 to 10 µM; against NaV1.3 it was 2 to 10 µM; against NaV1.8, over 10 µM.
Regarding `COc1cccc(N(C(=O)c2cnc(N3CCCCC3)nc2-c2ccccc2Cl)C2CCC2)c1` [compound 27], the results for the IC50 against CaV2.2, against NaV1.3 and at NaV1.8 were 2 to 10 µM, 2 to 10 µM and over 10 µM, respectively.
For the compound `CN(C)CCN(Cc1ccccc1)C(=O)c1cnc(N2CCOCC2)nc1-c1ccccc1F` [compound 28], the IC50 against CaV2.2, on NaV1.3 and on NaV1.8 was over 10 µM each time.
Turning to `CC(C)N(Cc1ccccc1)C(=O)c1cnc(NC2CC3CCC2C3)nc1-c1ccccc1F` (stereo not drawn) [compound 29], the 50% inhibitory concentration (IC50) on CaV2.2 is under 2 µM; against NaV1.3, 2 to 10 µM; on NaV1.8, 2 to 10 µM.
With `O=C(c1cnc(N2CCSCC2)nc1-c1ccccc1F)N(Cc1ccc2c(c1)CCO2)C1CC1` [compound 30], the half-maximal inhibitory concentration (IC50) on CaV2.2 is 2 to 10 µM; on NaV1.3, 2 to 10 µM; against NaV1.8 it was over 10 µM.
Turning to `Cc1nc(N2CCOCC2)nc(-c2ccccc2F)c1C(=O)N(Cc1ccc(C(C)(C)C)cc1)C(C)C` [compound 31], the IC50 against CaV2.2 was 2 to 10 µM; at NaV1.3, 2 to 10 µM; at NaV1.8 it was over 10 µM.
Take `Cc1nc(N2CCCCC2)nc(-c2ccccc2F)c1C(=O)N(Cc1ccc(C(C)(C)C)cc1)C(C)C` [compound 32]: the IC50 against CaV2.2 is 2 to 10 µM; against NaV1.3, 2 to 10 µM; against NaV1.8, over 10 µM.
Regarding `O=C(NC1Cc2ccccc2C1)c1cnc(N2CCOCC2)nc1-c1ccccc1F` [compound 33], the IC50 at CaV2.2, on NaV1.3 and on NaV1.8 was over 10 µM throughout.
As for `COc1cccc(N(C(=O)c2cnc(N3CCC4CCCCC4C3)nc2-c2ccccc2F)C(C)C)c1` (stereo not drawn) [compound 34], the results for the IC50 against CaV2.2, against NaV1.3 and at NaV1.8 were 2 to 10 µM, 2 to 10 µM and over 10 µM, respectively.
On to `COc1cccc(N(C(=O)c2cnc(N3CCCCC3)nc2-c2ccccc2F)C2CCOCC2)c1` [compound 35], for which the concentration for half-maximal inhibition (IC50) on CaV2.2, at NaV1.3 and at NaV1.8 was over 10 µM throughout.
In the case of `COc1ccc(CN(C(=O)c2cnc(N3CCCCC3)nc2-c2ccccc2Cl)C2CC2)cc1` [compound 36], the IC50 at CaV2.2 was 2 to 10 µM; against NaV1.3, 2 to 10 µM; against NaV1.8, over 10 µM.
Turning to `O=C(NC(CN1CCCC1)c1ccccc1)c1cnc(N2CCOCC2)nc1-c1ccccc1F` (stereo not drawn) [compound 37], the IC50 against CaV2.2, on NaV1.3 and on NaV1.8 was over 10 µM each time.
Consider `CN1CCN(c2ncc(C(=O)N(Cc3ccc(F)cc3)C3CC3)c(-c3ccccc3F)n2)CC1` [compound 39], for which the IC50 against CaV2.2, on NaV1.3 and at NaV1.8 was over 10 µM throughout.
Regarding `O=C(c1cnc(N2CCOCC2)nc1-c1ccccc1F)N(Cc1cccc2ccccc12)C1CC1` [compound 40], the IC50 at CaV2.2 is over 10 µM; on NaV1.3, 2 to 10 µM; on NaV1.8, over 10 µM.
Turning to `CC(C)N(C(=O)c1cnc(N2CCCCC2)nc1-c1ccccc1F)c1cccc(C(C)(C)C)c1` [compound 41], the 50% inhibitory concentration (IC50) against CaV2.2 was over 10 µM; on NaV1.3 it was 2 to 10 µM; against NaV1.8, over 10 µM.
`COc1cccc(N(C(=O)c2cnc(N3CCCCC3)nc2-c2ccccc2F)C2CCCC2)c1` [compound 42]: the IC50 is 2 to 10 µM against CaV2.2, 2 to 10 µM at NaV1.3 and over 10 µM at NaV1.8.
Turning to `COc1ccc(N(C(=O)c2cnc(N3CCCCC3)nc2-c2ccccc2Cl)C(C)C)cc1` [compound 43], the half-inhibitory concentration (IC50) against CaV2.2 was 2 to 10 µM; against NaV1.3, 2 to 10 µM; against NaV1.8 it was over 10 µM.
For `COc1ccccc1C1CCN(C(=O)c2cnc(N3CCOCC3)nc2-c2ccccc2F)CC1` [compound 44], the IC50 was over 10 µM on CaV2.2, 2 to 10 µM at NaV1.3 and 2 to 10 µM at NaV1.8.
For the compound `CC(C)N(Cc1ccccc1)C(=O)c1cnc(N2CCC(O)C2)nc1-c1ccccc1F` (stereo not drawn) [compound 45], the half-maximal inhibitory concentration (IC50) at CaV2.2, on NaV1.3 and against NaV1.8 was over 10 µM throughout.
`O=C(NCCCc1ccccc1)c1cnc(N2CCOCC2)nc1-c1ccc(Oc2ccccc2)cc1` [compound 46]: the IC50 against CaV2.2, against NaV1.3 and against NaV1.8 was over 10 µM each time.
With `O=C(c1cnc(N2CCSCC2)nc1-c1ccccc1F)N(Cc1ccccc1)C1CCCCC1` [compound 47], the 50% inhibitory concentration (IC50) at CaV2.2 is 2 to 10 µM; at NaV1.3 it was 2 to 10 µM; on NaV1.8 it was over 10 µM.
On to `O=C(c1cnc(N2CCSCC2)nc1-c1ccccc1F)N(Cc1ccc(F)cc1)C1CC1` [compound 48], for which the half-inhibitory concentration (IC50) against CaV2.2 is 2 to 10 µM; against NaV1.3 it was 2 to 10 µM; on NaV1.8, over 10 µM.
